Measured values: publication PMC6108829 (Environmental Health Perspectives, 2018)
Where a name gives a salt, the structure may show the parent alone.

Tests used:
human liver microsomes = experiment: Glucuronidation kinetics in pooled human liver microsomes (HPLC-UV); conditions: for Hepatic glucuronidation vmax: in vitro value scaled with 32 mg protein/g liver, BPS: uncalibrated model; for glucuronidation compared with the other analogs: at lower, physiologically relevant substrate concentrations, small intestine and liver (Figure 3B)
Method: (§1) Pooled human liver microsomes ( 20mg/mL ) and pooled human intestinal microsomes ( 20mg/mL ) were from BD Biosciences. We first placed the reaction mixtures for 30 min on ice and then incubated them for 5 min at 37°C. The addition of uridine 5'-diphospho-glucuronic acid (Sigma-Aldrich) to a final concentration of 5 mM started the reaction. For the enzyme reactions, we used a temperature of 37°C; the incubation times differed, subject to the BP and microsome type regarded (Table 1). We terminated the glucuronidation reactions with the addition of 10μL perchloric acid (Merck). In the following step, we put the samples on ice for 15 min, centrifuged at 16,000×g for 10 min, and analyzed the supernatants using HPLC-UV.
(§2) We conducted the HPLC-UV analysis on an Agilent 1,100 series HPLC system (Agilent Technologies). For this, we injected 10μL of each sample onto a Poroshell 120 EC-C18 column ( 4.6×100mm , 2.7μm , Agilent Technologies) maintained at 40°C. The mobile phases were 0.1% formic acid (A) and acetonitrile (B). The elution of different BPs consisted of a linear gradient (see Table 2). We further analyzed the results with the GraphPad Prism software (version 5.04; GraphPad Software Inc.,) and selected the most suitable kinetic model (Michaelis-Menten or substrate inhibition, Equations 3 and 4), based on the curve fitting and the shape of the Eadie-Hofstee plots (see Figure S2).
(§3) Michaelis-Menten equation: (3) v=vmax[S]/Km+[S]
(§4) Substrate inhibition equation: (4) v=vmax[S]/Km+[S](1+[S]/Ksi )

[1] = as above; conditions: human, pH 7.4
Method: as §1, §2, §3, §4

[2] = test system: human intestinal microsomes; experiment: Glucuronidation kinetics in pooled human intestinal microsomes (HPLC-UV); conditions: for Glucuronidation in enterocytes vmax - used in basic model: scaled with 4.29 mg protein/kg BW; for Glucuronidation in enterocytes Ksi: substrate-inhibition kinetics
Method: as §1, §2, §3, §4

[3] = as above; conditions: human, pooled human intestinal microsomes, pH 7.4
Method: as §1, §2, §3, §4

estrogen receptor = target: estrogen receptor; design: method as in Kitamura et al. 2005; conditions: ref Kitamura et al. 2005, cited from earlier work; for EC50: estrogenic potency
[4] = cited from earlier work; for pKa: ref SPARC 2011; for logPow: ref Choi and Lee 2017
[5] = Margin of exposure (MOE = EC50/Cmax) back-of-the-envelope calculation; design: species or system human
estrogen receptors = test system: estrogen receptors; design: method as in Kitamura et al. 2005; Stossi et al. 2014; conditions: ref Kitamura et al. 2005; Stossi et al. 2014; cited from earlier work
[6] = in vivo; cited from earlier work
[7] = design: method as in Dumont et al. 2011; conditions: third subject (oldest volunteer); ref Dumont et al. 2011; cited from earlier work
[8] = design: method as in Oh et al. (2018); conditions: ref Oh et al. (2018); cited from earlier work
[9] = mouse, in vivo; cited from earlier work
[10] = EC50 (Kitamura et al. 2005)/highest Cmax of basic PBPK model (Table 9)

| Structure (SMILES) | Hepatic glucuronidation vmax (human liver microsomes) | Km [1] [µM] | Glucuronidation in enterocytes vmax - used in basic model [2] [nmol/h/g bw] | Glucuronidation in enterocytes Ksi [2] | Km [3] [µM] | EC50 (estrogen receptor) [nM] | pKa [4] | glucuronidation compared with the other analogs (human liver microsomes) | logPow [4] | AUC, mean (range), measured [6] | Cmax [6] [nM] | also measured |
| --- | --- | --- | --- | --- | --- | --- | --- | --- | --- | --- | --- | --- |
| Oc1ccc(Cc2ccc(O)cc2)cc1 [BPF, bisphenol F] | 3,600 nmol/h/g liver | 17.9 | 462 | 605,000 nM | 57 | 1000 | ~7.6 | – | – | – | – | – |
| Oc1ccc(C(c2ccc(O)cc2)(C(F)(F)F)C(F)(F)F)cc1 [BPAF, bisphenol AF] | 5,660 nmol/h/g liver | – | 107 | 82,200 nM | 1.83 | – | ~9.2 | most effective | 2.8 to 4.8 | – | – | Hepatic glucuronidation Ksi (human liver microsomes; substrate-inhibition kinetics): 219,000 nM; Km ([1]; pooled human liver microsomes): 4.21 µM; estrogenic potency, times higher than BPA (estrogen receptor; from EC50 values): 13 times; MOE in serum of females of childbearing age ([5]; 2D-MC analysis, P95/P95): 1,860; MOE in gonads [5, 10]: 1,810; estrogenic potency, times higher than the potency of BPA (estrogen receptors): 7 to 13 times |
| CC(C)(c1ccc(O)cc1)c1ccc(O[C@@H]2O[C@H](C(=O)O)[C@@H](O)[C@H](O)[C@H]2O)cc1 [BPA-g, BPA glucuronide] | – | – | – | – | – | – | – | – | – | 6.66 (5.52–8.34) nM*h for 1.5 h | 6.48 | – |
| O=S(=O)(O)Oc1ccc(Cc2ccc(O)cc2)cc1 [BPF-s] | – | – | – | – | – | – | – | – | – | – | – | share as major metabolite [7]: 75% |
| O=S(=O)(c1ccc(O)cc1)c1ccc(O)cc1 [BPS, bisphenol S] | 26,500 nmol/h/g liver | 285 | 563 | 711,000 nM | 354 | 1100 | ~8.2 | least effective | 1.7–2.1 | – | – | MOE in serum [5, 10]: 2,440; half-life, times longer than the half-life of BPA [8]: 2.7 times |
| CC(C)(c1ccc(O)cc1)c1ccc(OS(=O)(=O)O)cc1 [BPA-s, BPA sulfate] | – | – | – | – | – | – | – | – | – | 3.61 (2.60–4.52) nM*h for 1.5 h | 4.22 | share of metabolites present in plasma [9]: 0.5–4.8% |
